Consider twelve molecules from US20240158393A1, “PYRIDONE COMPOUNDS AND METHODS OF USE” (Exelixis, Inc., priority 2021, published 2024).

The target of one assay is T1, Human Axl (Homo sapiens, UniProt P30530).
T1 construct: Human AXL (residues 464-885)
T1 sequence (P30530 1-894 Q764R): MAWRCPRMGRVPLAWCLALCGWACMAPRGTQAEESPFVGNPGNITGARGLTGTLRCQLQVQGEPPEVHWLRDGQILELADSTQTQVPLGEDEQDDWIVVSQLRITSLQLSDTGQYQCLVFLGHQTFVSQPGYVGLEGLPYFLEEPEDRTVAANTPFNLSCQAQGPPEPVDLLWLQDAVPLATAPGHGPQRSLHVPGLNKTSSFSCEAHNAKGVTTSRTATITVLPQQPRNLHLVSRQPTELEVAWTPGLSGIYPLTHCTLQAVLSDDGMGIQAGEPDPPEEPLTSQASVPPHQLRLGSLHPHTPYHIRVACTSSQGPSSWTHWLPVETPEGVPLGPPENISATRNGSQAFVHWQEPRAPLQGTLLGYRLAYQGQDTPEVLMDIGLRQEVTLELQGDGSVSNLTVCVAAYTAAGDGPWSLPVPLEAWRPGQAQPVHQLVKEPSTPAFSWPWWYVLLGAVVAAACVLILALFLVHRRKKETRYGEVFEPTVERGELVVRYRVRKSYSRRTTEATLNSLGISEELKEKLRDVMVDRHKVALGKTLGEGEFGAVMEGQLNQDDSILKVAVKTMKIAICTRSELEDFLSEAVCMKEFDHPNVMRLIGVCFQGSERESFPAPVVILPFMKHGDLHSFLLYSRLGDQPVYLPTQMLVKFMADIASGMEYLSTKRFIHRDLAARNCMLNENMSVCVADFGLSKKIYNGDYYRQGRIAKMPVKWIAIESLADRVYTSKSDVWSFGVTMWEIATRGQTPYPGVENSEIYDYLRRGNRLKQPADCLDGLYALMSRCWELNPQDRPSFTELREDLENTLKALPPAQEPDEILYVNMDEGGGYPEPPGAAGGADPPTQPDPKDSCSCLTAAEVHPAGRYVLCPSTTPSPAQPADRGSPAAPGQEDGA
In words: Human AXL kinase assay (33P radiometric / HTRF KinEase). As to conditions: protocols of Examples A-1 and/or A-2. The class given is biochemical. A general note: Time-resolved FRET reads energy transfer from a long-lived donor to a nearby acceptor.

The target in another assay is T2, Human KDR (Homo sapiens, UniProt P35968).
T2 construct: Human KDR (residues K790-V1356, 55 nM); purchased Eurofins Pharma Discovery Services UK Limited (KinaseProfiler, B-1) and/or CarnaBio (B-2)
T2 sequence (P35968 790-1356): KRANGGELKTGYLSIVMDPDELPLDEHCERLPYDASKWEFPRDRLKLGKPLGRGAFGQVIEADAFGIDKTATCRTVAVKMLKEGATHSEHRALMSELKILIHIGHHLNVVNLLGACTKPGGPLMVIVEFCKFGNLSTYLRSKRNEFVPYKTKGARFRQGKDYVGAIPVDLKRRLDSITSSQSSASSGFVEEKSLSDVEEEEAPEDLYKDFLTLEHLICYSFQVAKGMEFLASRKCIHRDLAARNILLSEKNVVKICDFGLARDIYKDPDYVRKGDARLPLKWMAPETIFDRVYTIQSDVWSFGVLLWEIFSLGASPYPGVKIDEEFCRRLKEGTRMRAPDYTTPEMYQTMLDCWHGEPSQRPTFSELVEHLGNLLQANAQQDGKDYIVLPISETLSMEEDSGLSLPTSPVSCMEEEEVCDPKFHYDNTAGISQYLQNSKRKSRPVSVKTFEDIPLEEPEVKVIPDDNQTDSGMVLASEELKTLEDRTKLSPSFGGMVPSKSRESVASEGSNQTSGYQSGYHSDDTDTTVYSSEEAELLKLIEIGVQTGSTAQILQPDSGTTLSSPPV
In words: Human KDR kinase assay (33P radiometric / HTRF KinEase). The assay is classed as biochemical. The note with it: protocols of Examples B-1 and/or B-2. A digest of the protocol: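 Radiometric: KDR K790-V1356 (55 nM), MOPS pH 7.0, myelin basic protein, 10 μM [γ-33P]ATP, 40 min at room temperature, filter-bound 33P counted; nine half-log doses, top 1 μM. HTRF: KDR 790-1356, 1 μM biotinylated peptide, ATP at Km (4.0 μM), 40 min, 10 doses. IC50 from logistic fits.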

Where a name gives a salt, the structure may show the parent alone.

Broadly, the IC50 is the concentration that gives 50% inhibition. Low readings indicate higher potency, high ones lower potency. For the molecule `COCCOc1cc2nccc(Oc3ccc(NC(=O)c4c(C)n(C)c(C)c(/C=C/C5CCCC5)c4=O)cc3F)c2nc1OC` [Compound 54, 5-[(E)-2-Cyclopentylethenyl]-N-[3-fluoro-4-[[6-methoxy-7-(2-methoxyethoxy)-1,5-naphthyridin-4-yl]oxy]phenyl]-1,2,6-trimethyl-4-oxopyridine-3-carboxamide], the values for the IC50 against Human Axl and against Human KDR were at most 100 nM and 100 to 300 nM, respectively.
Take `COc1cc2nccc(Oc3ccc(NC(=O)c4c(C)n(C)c(C)c(C5=CCOCC5)c4=O)cc3F)c2nc1OC` [Compound 53, 5-(3,6-Dihydro-2H-pyran-4-yl)-N-[4-[(6,7-dimethoxy-1,5-naphthyridin-4-yl)oxy]-3-fluorophenyl]-1,2,6-trimethyl-4-oxopyridine-3-carboxamide]: the IC50 was at most 100 nM on Human Axl and above 300 nM on Human KDR.
As to `COc1nc2c(Oc3ccc(NC(=O)c4c(C)n(C)c(C)c(C5=CCCC5)c4=O)cc3F)ccnc2cc1OCCC1CCC1` [Compound 74, N-[4-[[7-(2-Cyclobutylethoxy)-6-methoxy-1,5-naphthyridin-4-yl]oxy]-3-fluorophenyl]-5-(cyclopenten-1-yl)-1,2,6-trimethyl-4-oxopyridine-3-carboxamide], the IC50 against Human Axl and on Human KDR was at most 100 nM each time.
For the molecule `COCCOc1cnc2c(Oc3ccc(NC(=O)c4c(C)n(C)c(C)c(C5=CCCCC5)c4=O)cc3F)ccnc2c1` [Compound 66, 5-(Cyclohexen-1-yl)-N-[3-fluoro-4-[[7-(2-methoxyethoxy)-1,5-naphthyridin-4-yl]oxy]phenyl]-1,2,6-trimethyl-4-oxopyridine-3-carboxamide], the IC50 at Human Axl is at most 100 nM; against Human KDR, above 300 nM.
On to `C=C(C)c1c(C)n(C)c(C)c(C(=O)Nc2ccc(Oc3ccnc4cc(OC)c(OC)nc34)cc2)c1=O` [Compound 55, N-[4-[(6,7-Dimethoxy-1,5-naphthyridin-4-yl)oxy]phenyl]-1,2,6-trimethyl-4-oxo-5-prop-1-en-2-ylpyridine-3-carboxamide], for which the IC50 was at most 100 nM against Human Axl and above 300 nM on Human KDR.
Taken in the same sequence, the figures for `COc1cc2nccc(Oc3ccc(NC(=O)c4cnc(C)c(C5=CCCC5)c4O)cc3F)c2nc1OC` [Compound G1-2, 5-(Cyclopenten-1-yl)-N-[4-[(6,7-dimethoxy-1,5-naphthyridin-4-yl)oxy]-3-fluorophenyl]-4-hydroxy-6-methylpyridine-3-carboxamide hydrochloride] were at most 100 nM and at most 100 nM.
As for `COc1cc2nccc(Oc3ccc(NC(=O)c4c5n(cc(C6=CCCCC6)c4=O)CCOC5)cc3F)c2nc1OC` [Compound G1-4, 7-(Cyclohexen-1-yl)-N-[4-[(6,7-dimethoxy-1,5-naphthyridin-4-yl)oxy]-3-fluorophenyl]-8-oxo-3,4-dihydro-1H-pyrido[2,1-c][1,4]oxazine-9-carboxamide], the IC50 at Human Axl and against Human KDR was at most 100 nM each time.
Consider `COCCOc1cnc2c(Oc3ccc(NC(=O)c4c(C)n(C)c(C)c(C5=CCCC5)c4=O)cc3F)ccnc2c1` [Compound 65, 5-(Cyclopenten-1-yl)-N-[3-fluoro-4-[[7-(2-methoxyethoxy)-1,5-naphthyridin-4-yl]oxy]phenyl]-1,2,6-trimethyl-4-oxopyridine-3-carboxamide], for which the IC50 is at most 100 nM on Human Axl and 100 to 300 nM against Human KDR.
Taken in the same sequence, the figures for `COCCOc1cc2nccc(Oc3ccc(NC(=O)c4c(C)n(C)c(C)c(C5=CCCCC5)c4=O)cc3F)c2nc1OC` [Compound 58, 5-(Cyclohexen-1-yl)-N-[3-fluoro-4-[[6-methoxy-7-(2-methoxyethoxy)-1,5-naphthyridin-4-yl]oxy]phenyl]-1,2,6-trimethyl-4-oxopyridine-3-carboxamide] were at most 100 nM and at most 100 nM.
In the case of `COc1cc2nccc(Oc3ccc(NC(=O)c4cnc(C)c(C5=CCCCC5)c4O)cc3F)c2nc1OC` [Compound G1-3, 5-(Cyclohexen-1-yl)-N-[4-[(6,7-dimethoxy-1,5-naphthyridin-4-yl)oxy]-3-fluorophenyl]-4-hydroxy-6-methylpyridine-3-carboxamide], the IC50 against Human Axl and at Human KDR was at most 100 nM each time.
As to `C=C(C)c1c(C)n(C)c(C)c(C(=O)Nc2ccc(Oc3ccnc4cc(OC)c(OC)nc34)c(F)c2)c1=O` [Compound 52, N-[4-[(6,7-Dimethoxy-1,5-naphthyridin-4-yl)oxy]-3-fluorophenyl]-1,2,6-trimethyl-4-oxo-5-prop-1-en-2-ylpyridine-3-carboxamide], the IC50 was at most 100 nM on Human Axl and above 300 nM against Human KDR.
In the same order, the values of `COc1cc2nccc(Oc3ccc(NC(=O)c4c5n(c(C)c(C6=CCOCC6)c4=O)CCOC5)cc3)c2nc1OC` [Compound 73, 7-(3,6-Dihydro-2H-pyran-4-yl)-N-[4-[(6,7-dimethoxy-1,5-naphthyridin-4-yl)oxy]phenyl]-6-methyl-8-oxo-3,4-dihydro-1H-pyrido[2,1-c][1,4]oxazine-9-carboxamide] are at most 100 nM and above 300 nM.
